Values joined by “and” are separate entries in the source; they are usually repeats but may differ in a detail not shown here. Equal entries are not always repeated.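 Test compounds were applied to cells in 96-well plates for 48 hours at 5 doses. The concentration for 50% growth inhibition is given as GI50. TGI: total growth inhibition.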

Among the test systems are NCI-H460 lung; SF-268 CNS; K-562 leukemia; MOLT-4 leukemia; MCF7 breast; HT29 colon; A549 NSCLC; SF-539 CNS; RXF 393 renal; SK-MEL-28 melanoma.
Common to all, as to test: DTP human tumour cell line panel, 48 h

`O=C(Nc1ccc2[nH]nc(-c3ccncc3)c2c1)[C@@H]1CCN(CC(=O)N2CCN(c3ccc(-c4ncccn4)cc3)CC2)C1`: the GI50 with NCI-H460 lung is > 100 µM; in the experiment on SF-268 CNS it was > 69.7 µM; in the experiment on K-562 leukemia it was 1.96 µM; in the experiment on MOLT-4 leukemia, 5.22 µM; with MCF7 breast, > 100 µM; in the experiment with HT29 colon it was 0.0335 µM. Also, the GI50 in the experiment on A549 NSCLC was 5.09 µM; with SF-539 CNS, 5.1 µM; with RXF 393 renal, 2.84 µM. Besides, the TGI in the experiment on NCI-H460 lung was > 100 µM; in the experiment with SF-268 CNS, > 100 µM; in the experiment with K-562 leukemia, > 73.2 µM; with MOLT-4 leukemia, > 80.6 µM; with MCF7 breast, > 100 µM; with HT29 colon, > 100 µM. For the same compound, the values for the total growth inhibition concentration (TGI) in the experiment with A549 NSCLC, in the experiment on SF-539 CNS and in the experiment on RXF 393 renal were > 100 µM, 31.3 µM and > 100 µM, respectively.

Turning to `COc1ccc2c(c1)/C(=C\c1c(-c3cc(OC)ccc3OC)nc3sc(C)cn13)C(=O)N2C`, the GI50 is 24.9 µM in the experiment with NCI-H460 lung; 28.6 µM in the experiment on SF-268 CNS; 28 µM in the experiment with K-562 leukemia; 16 µM in the experiment on SK-MEL-28 melanoma; 14.1 µM with MOLT-4 leukemia; 28.3 µM in the experiment on MCF7 breast. The GI50 was 38.6 µM in the experiment on A549 NSCLC, 32.9 µM in the experiment on SF-539 CNS and > 100 µM in the experiment on RXF 393 renal. The total growth inhibition concentration (TGI) is 93.9 µM in the experiment on NCI-H460 lung; > 100 µM in the experiment with SF-268 CNS; > 100 µM with K-562 leukemia; 32.3 µM with SK-MEL-28 melanoma; 51.8 µM with MOLT-4 leukemia; > 100 µM in the experiment with MCF7 breast. The total growth inhibition concentration (TGI) in the experiment on A549 NSCLC, with SF-539 CNS and with RXF 393 renal was > 100 µM in each case.

For `COc1cc2c(cc1OC)[C@@H](Nc1ccc(C#N)cc1)C1COC(=O)[C@@H]1C2c1cc(OC)c(O)c(OC)c1` (stereo partly specified), the TGI was 1.05 µM and 1.72 µM in the experiment with NCI-H460 lung; 95 µM and > 100 µM with SK-MEL-28 melanoma; > 100 µM with MCF7 breast; 23.2 µM and > 100 µM with HT29 colon; 7.31 µM and 4.95 µM with A549 NSCLC; 0.856 µM in the experiment on SF-539 CNS. In addition, the TGI in the experiment on RXF 393 renal was 35.9 µM. Further, the GI50 in the experiment on SF-268 CNS was 0.342 µM and 0.663 µM; with SK-MEL-28 melanoma it was 3.4 µM and 6.94 µM; in the experiment on A549 NSCLC, 0.147 µM and 0.1 µM.

Take `O=C(CC(Cl)=C(Cl)Cl)Nc1ccccc1`: the GI50 with NCI-H460 lung, in the experiment on SF-268 CNS, with SK-MEL-28 melanoma, in the experiment on MOLT-4 leukemia, in the experiment on MCF7 breast and with HT29 colon was > 100 µM in each case. For the same compound, the GI50 in the experiment on A549 NSCLC, with SF-539 CNS and in the experiment with RXF 393 renal was > 100 µM throughout. Further, the total growth inhibition concentration (TGI) with NCI-H460 lung, in the experiment with SF-268 CNS, with SK-MEL-28 melanoma, with MOLT-4 leukemia, with MCF7 breast and with HT29 colon was > 100 µM throughout. The TGI in the experiment on A549 NSCLC, in the experiment with SF-539 CNS and in the experiment with RXF 393 renal was > 100 µM each time.

For the compound `COc1ccc(NC(=O)C(=O)c2c(O)c3ccc(O)cc3oc2=O)c([N+](=O)[O-])c1`, the TGI with NCI-H460 lung, with SF-268 CNS, with K-562 leukemia, in the experiment on SK-MEL-28 melanoma, with MOLT-4 leukemia and with HT29 colon was > 100 µM each time. The TGI in the experiment on A549 NSCLC, with SF-539 CNS and in the experiment with RXF 393 renal was > 100 µM each time.

On to `CC(C)(C)c1ccc(S(=O)(=O)Oc2ccc3c4c(c(=O)oc3c2)CCCCC4)cc1`, for which the GI50 is 7.3 µM in the experiment with NCI-H460 lung; 39.7 µM in the experiment on SF-268 CNS; 24.1 µM with SK-MEL-28 melanoma; > 100 µM in the experiment with MOLT-4 leukemia; 18.2 µM with MCF7 breast; 7.95 µM in the experiment on HT29 colon. In addition, the GI50 was 14.2 µM with A549 NSCLC, 24.2 µM in the experiment with SF-539 CNS and 17.8 µM in the experiment with RXF 393 renal. The total growth inhibition concentration (TGI) in the experiment on NCI-H460 lung, with SF-268 CNS, with SK-MEL-28 melanoma, in the experiment on MOLT-4 leukemia, in the experiment with MCF7 breast and with HT29 colon was > 100 µM throughout. Besides, the figures for the TGI with A549 NSCLC, in the experiment on SF-539 CNS and in the experiment with RXF 393 renal were 39.8 µM, > 100 µM and 63.5 µM, respectively.

Regarding `O=C(N/C(=C\c1ccc(Cl)cc1)c1nc2ccccc2[nH]1)c1ccccc1`, the TGI with NCI-H460 lung was determined as 49.7 µM; in the experiment with SF-268 CNS it was 38.5 µM; in the experiment on K-562 leukemia, 38.8 µM; in the experiment on SK-MEL-28 melanoma, 36.4 µM; in the experiment on MOLT-4 leukemia it was 43.2 µM; in the experiment with HT29 colon, 81.3 µM. Moreover, the total growth inhibition concentration (TGI) amounted to 56.1 µM with A549 NSCLC, 31.1 µM in the experiment with SF-539 CNS and 42.7 µM in the experiment on RXF 393 renal.

Regarding `CCCCCN(CCCCC)C(=O)[C@@H](CCC(=O)O)NC(=O)c1cc2ccccc2[nH]1`, the total growth inhibition concentration (TGI) with NCI-H460 lung is > 100 µM; in the experiment on SF-268 CNS, 82.9 µM; in the experiment with K-562 leukemia, > 100 µM; in the experiment on SK-MEL-28 melanoma, 57.5 µM; with MOLT-4 leukemia, 46.6 µM; in the experiment on HT29 colon, > 100 µM. Besides, the total growth inhibition concentration (TGI) in the experiment on A549 NSCLC is > 100 µM; with SF-539 CNS, 49.4 µM; in the experiment with RXF 393 renal, 25.6 µM.

With `CCCCCCCCCCCCOC1C(CNC(=O)C2OC3OC(C)(C)OC3C2NC(=O)Nc2ccc(CC(=O)OC)cc2)OC2OC(C)(C)OC21` (stereo unspecified), the GI50 in the experiment with NCI-H460 lung, in the experiment on SF-268 CNS, in the experiment on SK-MEL-28 melanoma, with MCF7 breast, with HT29 colon and in the experiment on A549 NSCLC was > 100 µM each time. The GI50 in the experiment with SF-539 CNS was > 100 µM. The TGI in the experiment with NCI-H460 lung, in the experiment on SF-268 CNS, with SK-MEL-28 melanoma, with MOLT-4 leukemia, in the experiment with MCF7 breast and with HT29 colon was > 100 µM throughout. For the same compound, the TGI in the experiment on A549 NSCLC and in the experiment with SF-539 CNS was > 100 µM in each case.

Consider `O=C1NC(Cc2ccc(O)cc2)C(=O)N2CCCC12` (stereo unspecified), for which the TGI in the experiment on NCI-H460 lung, in the experiment with SF-268 CNS, in the experiment with K-562 leukemia, with SK-MEL-28 melanoma, with MOLT-4 leukemia and with HT29 colon was > 100 µM in each case. For the same compound, the TGI in the experiment with A549 NSCLC, in the experiment on SF-539 CNS and in the experiment with RXF 393 renal was > 100 µM throughout.

For the compound `c1ccc2sc(SCCSc3nc4ccccc4s3)nc2c1`, the TGI in the experiment with NCI-H460 lung, with SF-268 CNS, with K-562 leukemia, with SK-MEL-28 melanoma, in the experiment with MCF7 breast and with HT29 colon was > 100 µM throughout. The TGI in the experiment with A549 NSCLC and in the experiment on RXF 393 renal was > 100 µM in each case.
